The values below come from US20250340847A1, “CELL CULTURE SYSTEM, USES THEREOF AND CELLS DERIVED THEREFROM” (UNIVERSITY OF PITTSBURGH-OF THE COMMONWEALTH SYSTEM OF …, priority 2022, published 2025).

In one assay the target is CXCR4 (Homo sapiens, UniProt P61073). Particulars: 1p M AMD3465 beginning at day 0 of iDiscoid culture; day 5. On the procedure:
(§1) Signaling Pathway Inhibition. BMP4 signaling was inhibited via application of 3 μM Dorsomorphin into the normal media at day 3 of iDiscoid culture. NODAL signaling was inhibited via application of 10 μM SB431542 beginning at day 2 of iDiscoid culture. CXCR4 signaling was inhibited via application of 1p M AMD3465 beginning at day 0 of iDiscoid culture.

In assay [1] the test system is NODAL signaling. The assay is described as follows: Day 4 scRNAseq of iDiscoid after SB431542 application at day 2. It is filed as cell-based, human.
For assay [2], the system named is NODAL signaling. Kind of assay: NODAL signaling inhibition in iDiscoid culture, immunofluorescence. It is filed as cell-based, human. To be noted: 10 μM SB431542 beginning at day 2 of iDiscoid culture. On the procedure: as §1
Staining on glass coverslips. Cells were grown on Matrigel-coated 8 mm diameter circular glass coverslips or on Mattek 35 mm coverslip bottom dishes. Cultures were fixed for 10 minutes in 4% paraformaldehyde (Electron Microscopy Sciences) at room temperature. For toluidine blue staining in FIG. 12B, cells were fixed for 1 hour in 2.5% glutaraldehyde in 0.01M PBS, pH 7.4, at room temperature. Coverslips were then washed three times with PBS followed by 15 minutes permeabilization with 0.2% Triton X-100 in PBS. Subsequently the coverslips were washed three times in washing buffer (0.05% Tween-20 in PBS) for 5 minutes and blocked for 20 minutes in […] wash buffer plus 5% normal donkey serum (Jackson ImmunoResearch Laboratories). The primary antibodies were diluted in 5% normal donkey serum in PBS and incubated with the tissues […] at room temperature followed by three washes in wash buffer for 5 minutes each. The secondary antibodies were diluted in 5% normal donkey serum in PBS and incubated with the tissues 1 hour at room temperature followed by three washes in wash buffer for 5 minutes each. Afterwards, the 8 mm coverslips were mounted on microscopy glass slides using ProLong Glass Antifade (Life Technologies), cured overnight at room temperature and then sealed with nail polish. Coverslips in Mattek dishes were stored in PBS at 4° C. for 3D imaging prior to mounting.
Image Acquisition and Processing. Images were acquired using the EVOS M700 automated scanning microscope, Leica SP8 confocal microscope, or Nikon A1 Confocal microscope and processed using ImageJ software (NIH). Any contrast adjustments were made in individual channels and applied evenly across the whole image in that channel. Contrast and color balance for color images was applied evenly across the whole image. 3D reconstructions were generated using the Nikon A1 confocal microscope to generate z-stacks spanning ˜100 um deep into the tissues and using ImageJ or Imaris (Bitplane) to construct a 3D volume from the stacks.

Another assay has as its system iGATA6 cells. Kind of assay: Dox induction of GATA6 gene circuit in iGATA6 hiPSCs. It is filed as cell-based, human. Particulars: after treatment with Dox. How it is done: Generation of iDiscoid. The GATA6-engineered hiPSCs were seeded at a ratio of 4:1 with rtTA expressing hiPSCs either containing or lacking an mKate reporter gene at a total density of 25,000 cells per cm^2 in mTeSR-1 supplemented with […] Y-27632. The next day, the medium was changed to mTeSR-1 with […] doxycycline to induce expression of the GATA6 transgene and replaced daily for up to 5 days.
Time lapse Imaging. iGATA6 cells were seeded at 25,000 cells per cm^2 in a Cellstar 24-well tissue culture treated plate coated […], then induced with 1,000 ng ml^−1 Dox. After induction, the cells were placed under an Incucyte S3 live cell imaging platform at 37C and 5% CO2. Images were taken every 30 min for 3 days.

The next assay deals with T1, NODAL (Homo sapiens, UniProt Q96S42).
T1 sequence (Q96S42 238-347): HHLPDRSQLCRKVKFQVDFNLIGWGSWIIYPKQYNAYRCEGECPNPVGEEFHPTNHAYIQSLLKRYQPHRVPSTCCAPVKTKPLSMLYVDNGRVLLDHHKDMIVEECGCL
To be noted: cited from earlier work.

A further assay addresses T2, BMP2 (Homo sapiens, UniProt P12643).
T2 sequence (P12643 283-396): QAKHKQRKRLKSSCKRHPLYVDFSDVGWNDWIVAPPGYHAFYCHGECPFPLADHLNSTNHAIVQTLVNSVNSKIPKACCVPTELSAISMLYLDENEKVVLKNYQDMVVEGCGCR
To be noted: cited from earlier work.

The target in another assay is T3, BMP4 (Homo sapiens, UniProt P12644).
T3 sequence (P12644 293-408): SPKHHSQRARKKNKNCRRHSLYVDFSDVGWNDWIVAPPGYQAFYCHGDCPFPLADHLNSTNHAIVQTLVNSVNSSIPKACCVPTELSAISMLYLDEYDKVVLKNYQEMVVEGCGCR
To be noted: cited from earlier work.

[3] abbreviates: day 4, SB431542 applied at day 2.

Chain of CXCR4 (P61073 whole entry): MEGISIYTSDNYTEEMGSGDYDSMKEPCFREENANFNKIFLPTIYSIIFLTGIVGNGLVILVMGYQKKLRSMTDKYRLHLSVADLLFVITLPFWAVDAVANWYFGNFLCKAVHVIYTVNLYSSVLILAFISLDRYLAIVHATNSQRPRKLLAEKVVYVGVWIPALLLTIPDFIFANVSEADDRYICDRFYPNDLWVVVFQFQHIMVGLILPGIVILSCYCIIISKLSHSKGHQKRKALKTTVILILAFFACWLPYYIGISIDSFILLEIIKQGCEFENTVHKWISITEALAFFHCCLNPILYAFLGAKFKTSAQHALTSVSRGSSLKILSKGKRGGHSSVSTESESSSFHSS

As for `c1ccc(CNCc2ccc(CN3CCCNCCNCCCNCC3)cc2)nc1` [AMD3465], the “upward migration and contiguous iGATA6 membrane formation” value at CXCR4 is listed as “substantially inhibits”.
Take `NC(=O)c1ccc(-c2nc(-c3ccc4c(c3)OCO4)c(-c3ccccn3)[nH]2)cc1` [SB431542]: the “system state after addition to the culture media” value in the assay with NODAL signaling [1] (SB431542 added to the media) was “acquire and maintain a state similar to early human and primate amnion”. In the assay with NODAL signaling [1] (setting [3]), the “NANOG expression within the WT (scRNAseq)” value is “lost”; the “pluripotency markers SOX2 and OCT4 within the WT (scRNAseq)” value was “retained”. The “expression of the amnion marker ISL1 (scRNAseq)” value with NODAL signaling [1] (day 4, SB431542 applied at day 2, alongside CDX2, GATA3, AP-2γ) is listed as “present in cluster 2”. Moreover, in the assay with NODAL signaling [2], the “ISL1-expressing cells within iDiscoids / ISL1 expression” value was “lost”, the “cavity formation / cavity morphology” value is “maintained” and the “expression of NANOG within the WT clusters” value is reported as “lost”. In the assay with NODAL signaling [2] (listed as SB431542), the “ISL1-expressing cells within iDiscoids / ISL1 expression” value was “substantial elimination” and the “cavity formation / cavity morphology” value is listed as “preserved”. In addition, the “expression of NANOG within the WT clusters” value with NODAL signaling [2] (listed as SB431562) was “substantially decreased”.
Regarding `C[C@H]1c2cccc(O)c2C(=O)C2=C(O)[C@]3(O)C(=O)C(C(N)=O)=C(O)[C@@H](N(C)C)[C@@H]3[C@@H](O)[C@@H]21` [Dox, Doxycycline], in the assay with iGATA6 cells, the “EGFP expression in iGATA6 cells” value is “upregulate” and the “pluripotency marker NANOG in iGATA6 cells” value is “loss”.

B1: human CER1: human Cerberus ortholog, cerberus 1 (CER1) polypeptide (protein, UniProt O95813 18-267, looked up)
Cerberus: TRHQDGRQNQSSLSPVLLPRNQRELPTGNHEEAEEKPDLFVAVPHLVATSPAGEGQRQREKMLSRFGRFWKKPEREMHPSRDSDSEPFPPGTQSLIQPIDGMKMEKSPLREEAKKFWHHFMFRKTPASQGVILPIKSHEVHWETCRTVPFSQTITHEGCEKVVVQNNLCFGKCGSVHFPGAAQHSHTSCSHCLPAKFTTMHLPLNCTELSSVIKVVMLVEECQCKVKTEHEDGHILHAGSQDSFIPGVSA
With B1, the “affinity for NODAL” value with NODAL was “high affinity”. Moreover, in the assay with BMP2, the “affinity for BMP2” value is reported as “minimal affinity”. Besides, the “affinity for BMP4” value in the assay with BMP4 is on record as “minimal affinity”.
